This passage reports IC50 results from US20080085893A1, “MATRIX METALLOPROTEASE INHIBITORS” (priority 2006, published 2008).

Assay type in all cases: biochemical
The target in test [1] is T1, human MMP-3 (amino acids 100-265) (Homo sapiens, UniProt P08254).
T1 construct: human MMP-3 (amino acids 100-265); made in house
Put plainly: MMP dose response assay for determining IC50, MMP-3. The conditions noted are these: recombinant enzyme, fluorescent-quench substrate 100 nM. Here is the method:
(§1) MMP Dose Response Assay for Determining IC50
(§2) The following method was used for determining IC50 values of different inhibitor compounds against multiple MMP enzymes. Frozen stocks of recombinantly produced MMPs were prepared in assay buffer (50 mM HEPES pH 7.4, 10 mM CaCl2, 0.05% Brij-35). The following domains were used to produce catalytically active version of the indicated MMP enzymes, human MMP-1 (amino acids 100-262), human MMP-2 (amino acids 1-660), human MMP-3 (amino acids 100-265), human MMP-9 (amino acids 107-446), human MMP-13 (amino acids 103-268), and rat MMP-9 (amino acids 108-446). Enzyme concentrations in the assay were determined empirically and set such that proteolytic activity was maintained in a linear range over the time-course of the experiment. Diluted enzymes were mixed with various test compounds that had been pre-diluted into assay buffer to establish concentration curves ranging from 10^−5 M to 10^−12 M. Compounds were diluted into assay buffer that contained an appropriate concentration of DMSO to maintain this at a constant in all wells. Each concentration for each test compound was tested in triplicate. MMP enzymes were equilibrated with compounds for 1 hour at room temperature, then a fluorescent-quench substrate (Acetyl-Cys(Eu)-Pro-Leu-Gly-Leu-Lys-(QSY7)-Ala-Arg-amide) was added to a final concentration of 100 nM. Following a 15 minute room temperature incubation, the assay plate was read on an EnVision plate reader using the following parameters: excitation wavelength 340 nM, emission wavelength 615 nM, number of flashes 100, delay before reading 300 milliseconds. Data was analyzed by first calculating average background value from wells that contained only substrate, and this value was subtracted from the entire plate. The 100%, or maximum value, was determined by averaging control wells that contained enzyme, substrate and DMSO. For each well, the percent of control was calculated by dividing the well value by the average DMSO value obtained above.
(§3) Additionally, compounds 27, 3, 65, 66, and 97 were tested in vitro for MMP-3, MMP-9 (rat), and MMP-13 antagonism.

The target of test [2] is T2, human MMP-13 (amino acids 103-268) (Homo sapiens, UniProt P45452).
T2 construct: human MMP-13 (amino acids 103-268); made in house
Description: MMP dose response assay for determining IC50, MMP-13. To be noted: recombinant enzyme, fluorescent-quench substrate 100 nM. Here is the method:
as §1, §2, §3

Test [3] deals with T3, human MMP-9 (amino acids 107-446) (Homo sapiens, UniProt P14780).
T3 construct: human MMP-9 (amino acids 107-446); made in house
T3 sequence (P14780 107-446): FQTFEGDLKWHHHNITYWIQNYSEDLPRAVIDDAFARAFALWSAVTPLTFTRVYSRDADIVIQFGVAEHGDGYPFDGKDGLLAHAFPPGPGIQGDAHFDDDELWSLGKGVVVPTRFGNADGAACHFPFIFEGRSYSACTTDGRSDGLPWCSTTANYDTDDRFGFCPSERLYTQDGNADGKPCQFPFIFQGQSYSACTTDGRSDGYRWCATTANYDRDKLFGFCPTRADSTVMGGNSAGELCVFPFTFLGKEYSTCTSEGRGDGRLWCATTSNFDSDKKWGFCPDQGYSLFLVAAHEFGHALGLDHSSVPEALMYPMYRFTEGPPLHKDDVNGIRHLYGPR
Description: MMP dose response assay for determining IC50, MMP-9. The conditions noted are these: recombinant enzyme, fluorescent-quench substrate 100 nM; read-out: MMP-9. Summed up:
(§4)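 Recombinant enzymes in 50 mM HEPES pH 7.4, 10 mM CaCl2, 0.05% Brij-35, at empirically set levels keeping activity linear, preincubated 1 h at room temperature with compound in triplicate. Fluorescence-quench peptide substrate (Eu/QSY7) added at 100 nM final. Background-subtracted signal expressed as percent of DMSO control for IC50.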

In test [4] the target is T4, human MMP-1 (amino acids 100-262) (Homo sapiens, UniProt P03956).
T4 construct: human MMP-1 (amino acids 100-262); made in house
T4 sequence (P03956 100-262): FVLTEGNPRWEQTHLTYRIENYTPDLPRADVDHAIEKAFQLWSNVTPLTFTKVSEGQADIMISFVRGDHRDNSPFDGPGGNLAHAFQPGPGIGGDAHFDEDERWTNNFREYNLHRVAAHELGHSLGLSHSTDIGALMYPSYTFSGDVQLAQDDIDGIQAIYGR
Put plainly: MMP dose response assay for determining IC50, MMP-1. To be noted: recombinant catalytic domain, fluorescent-quench substrate 100 nM. The gist of the method:
as §4

Test [5] concerns the target T5, human MMP-2 (amino acids 1-660) (Homo sapiens, UniProt P08253).
T5 construct: human MMP-2 (amino acids 1-660); made in house
T5 sequence (P08253 110-660): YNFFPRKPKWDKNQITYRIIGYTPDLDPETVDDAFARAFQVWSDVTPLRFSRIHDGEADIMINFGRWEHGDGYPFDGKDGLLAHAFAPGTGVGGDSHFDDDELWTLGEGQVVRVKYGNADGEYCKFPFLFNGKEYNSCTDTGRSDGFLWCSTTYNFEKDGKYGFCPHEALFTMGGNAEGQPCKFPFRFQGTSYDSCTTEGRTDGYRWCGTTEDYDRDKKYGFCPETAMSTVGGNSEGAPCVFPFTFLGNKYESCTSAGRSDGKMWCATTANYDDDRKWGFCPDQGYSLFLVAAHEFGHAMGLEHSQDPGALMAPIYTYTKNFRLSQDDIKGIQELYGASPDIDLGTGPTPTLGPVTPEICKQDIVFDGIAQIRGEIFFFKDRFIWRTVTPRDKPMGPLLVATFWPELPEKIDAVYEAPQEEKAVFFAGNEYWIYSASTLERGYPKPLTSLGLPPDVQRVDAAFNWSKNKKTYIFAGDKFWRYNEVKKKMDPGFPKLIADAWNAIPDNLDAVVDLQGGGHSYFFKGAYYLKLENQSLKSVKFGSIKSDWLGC
Put plainly: MMP dose response assay for determining IC50, MMP-2. To be noted: recombinant enzyme, fluorescent-quench substrate 100 nM; read-out: MMP-2. Summed up: as §4

Several values for one entry are separate records, joined by “and”; a condition that tells them apart may be missing. Identical values can stand only once.

T1 sequence (P08254 100-265): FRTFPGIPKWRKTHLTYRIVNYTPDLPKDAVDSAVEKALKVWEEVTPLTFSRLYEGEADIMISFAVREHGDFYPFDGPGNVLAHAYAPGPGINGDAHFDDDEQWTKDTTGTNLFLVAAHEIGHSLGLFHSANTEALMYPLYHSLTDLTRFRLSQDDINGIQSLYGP

On to `CS(=O)(=O)N(C[C@@H](C(=O)NO)N1CCOCC1)c1ccc(Oc2ccc(C(F)(F)F)cc2)cc1` [Example 3, N-Hydroxy (2S)-2-(morpholin-4-yl)-3-{N-[4-(4-trifluoromethylphenoxy)phenyl],N-methanesulfonylamino}propionamide], for which the IC50 in test [1] was 63.7 nM and 105 nM; in test [2], 30.5 nM and 56.1 nM; in test [3], 4.06 nM and 3.53 nM and 2.37 nM and 2.76 nM and 7.64 nM and 2.89 nM and 2.08 nM and 2.79 nM and 18.4 nM and 7.46 nM.
In the case of `Cc1ccc(Oc2ccc(N(C[C@@H](C(=O)NO)N3CCC(O)(c4ccc(Br)cc4)CC3)S(C)(=O)=O)cc2)cc1` [Example 65, N-Hydroxy (2S)-2-[4-(4-bromophenyl)-4-hydroxypiperidin-1-yl]-3-{N-[4-(4-methylphenoxy)phenyl],N-methanesulfonylamino}propionamide], the IC50 is above 10000 nM in test [4]; 0.37 nM in test [5]; 492 nM in test [1]; 411 nM in test [2]; 0.65 nM in test [3].
As to `CN(C)[C@H]1CCN([C@@H](CN(c2ccc(Oc3ccc(C(F)(F)F)cc3)cc2)S(C)(=O)=O)C(=O)NO)C1` [Example 74, N-Hydroxy (2S)-2-[(3S)-3-N,N-dimethylaminopyrrolidin-1-yl]-3-{N-[4-(4-trifluoromethylphenoxy)phenyl],N-methanesulfonylamino}propionamide], the IC50 was above 10000 nM in test [4], 17.7 nM in test [5] and 3.86 nM in test [3].
For the molecule `CN(C)[C@@H]1CCN([C@@H](CN(c2ccc(Oc3ccc(C(F)(F)F)cc3)cc2)S(C)(=O)=O)C(=O)NO)C1` [Example 75, N-Hydroxy (2S)-2-[(3R)-3-N,N-dimethylaminopyrrolidin-1-yl]-3-{N-[4-(4-trifluoromethylphenoxy)phenyl],N-methanesulfonylamino}propionamide], the IC50 is above 10000 nM in test [4]; 15.2 nM and 21.5 nM in test [5]; 2.18 nM and 3.16 nM in test [3].
In the case of `CS(=O)(=O)N(C[C@@H](C(=O)NO)N1CCC(c2ccccc2)CC1)c1ccc(Oc2ccc(C(F)(F)F)cc2)cc1` [Example 76, N-Hydroxy (2S)-3-{N-[4-(4-trifluoromethylphenoxy)phenyl],N-methanesulfonylamino}-2-(4-phenylpiperidin-1-yl)propionamide], the IC50 in test [4] was above 10000 nM; in test [5] it was 47.2 nM; in test [3], 17 nM.
As to `CS(=O)(=O)N(C[C@@H](C(=O)NO)N1CCN(c2ccc(Cl)cc2)CC1)c1ccc(Oc2ccc(C(F)(F)F)cc2)cc1` [Example 77, N-Hydroxy (2S)-2-[4-(4-chlorophenyl)piperazin-1-yl]-3-{N-[4-(4-trifluoromethylphenoxy)phenyl],N-methanesulfonylamino}propionamide], the IC50 in test [4] is above 10000 nM; in test [5], 119 nM; in test [3] it was 256 nM.
For the molecule `CS(=O)(=O)N(C[C@H](NCCc1c[nH]c2ccccc12)C(=O)NO)c1ccc(Oc2ccc(C(F)(F)F)cc2)cc1` [Example 78], the IC50 in test [4] was above 10000 nM; in test [5], 318 nM; in test [3], 116 nM.
For `CS(=O)(=O)N(C[C@@H](C(=O)NO)N1CCC(O)(c2ccc(Br)cc2)CC1)c1ccc(Oc2ccc(C(F)(F)F)cc2)cc1` [Example 79, N-Hydroxy (2S)-2-[4-(4-bromophenyl)-4-hydroxypiperidin-1-yl]-3-{N-[4-(4-trifluoromethylphenoxy)phenyl],N-methanesulfonylamino}propionamide] the same measures were above 10000 nM, 38.9 nM and 37.1 nM.
For `CC(C)N(CCN1C(=O)N(C)C(C)(C)C1=O)[C@@H](CN(c1ccc(Oc2ccc(C(F)(F)F)cc2)cc1)S(C)(=O)=O)C(=O)NO` [Example 80, N-Hydroxy (2S)-2-{N-(2-propyl),N-[2-(1,5,5-trimethylhydantoin-3-yl)ethyl]amino}-3-{N-[4-(4-trifluoromethylphenoxy)phenyl]-N-methanesulfonylamino}propionamide] the same measures were above 10000 nM, 24.3 nM and 2.67 nM.
`COC[C@H]1CCCN1[C@@H](CN(c1ccc(Oc2ccc(C(F)(F)F)cc2)cc1)S(C)(=O)=O)C(=O)NO` [Example 81, N-Hydroxy (2S)-2-[(2R)-2-methoxymethylpyrrolidin-1-yl]-3-{N-[4-(4-trifluoromethylphenoxy)phenyl],N-methanesulfonylamino}propionamide]: the IC50 was above 10000 nM in test [4], 14.2 nM in test [5] and 3.16 nM in test [3].
For the molecule `COC[C@@H]1CCCN1[C@@H](CN(c1ccc(Oc2ccc(C(F)(F)F)cc2)cc1)S(C)(=O)=O)C(=O)NO` [Example 82, N-Hydroxy (2S)-2-[(2S)-2-methoxymethylpyrrolidin-1-yl]-3-{N-[4-(4-trifluoromethylphenoxy)phenyl],N-methanesulfonylamino}propionamide], the figures for the IC50 in test [4], in test [5] and in test [3] were above 10000 nM, 11.3 nM and 7.32 nM, respectively.
As to `CS(=O)(=O)N1CCN([C@@H](CN(c2ccc(Oc3ccc(C(F)(F)F)cc3)cc2)S(C)(=O)=O)C(=O)NO)CC1` [Example 83, N-Hydroxy (2S)-2-(4-methanesulfonylpiperazin-1-yl)-3-{N-[4-(4-trifluoromethylphenoxy)phenyl],N-methanesulfonylamino}propionamide], the IC50 in test [4] is above 10000 nM; in test [5], 6.21 nM and 13.5 nM; in test [3], 1.94 nM and 4.5 nM.
As for `CC(=O)N1CCN([C@@H](CN(c2ccc(Oc3ccc(C(F)(F)F)cc3)cc2)S(C)(=O)=O)C(=O)NO)CC1` [Example 84, N-Hydroxy (2S)-2-(4-acetylpiperazin-1-yl)-3-{N-[4-(4-trifluoromethylphenoxy)phenyl],N-methanesulfonylamino}propionamide], the IC50 in test [4] was above 10000 nM; in test [5], 8.55 nM; in test [3], 4.81 nM.
Regarding `C[C@@H]1CN([C@@H](CN(c2ccc(Oc3ccc(C(F)(F)F)cc3)cc2)S(C)(=O)=O)C(=O)NO)C[C@H](C)O1` [Example 86, N-Hydroxy (2S)-2-(cis-2,6-dimethylmorpholin-4-yl)-3-{N-[4-(4-trifluoromethylphenoxy)phenyl],N-methanesulfonylamino}propionamide], the IC50 in test [4] was 8040 nM; in test [5], 2.69 nM and 4.57 nM and 9.44 nM and 8.32 nM and 3.04 nM; in test [3] it was 0.48 nM and 0.86 nM and 2.08 nM and 2.71 nM and 0.35 nM.
`CS(=O)(=O)N(C[C@@H](C(=O)NO)N1CCNC(=O)C1)c1ccc(Oc2ccc(C(F)(F)F)cc2)cc1` [Example 87, N-Hydroxy (2S)-2-(3-oxopiperazin-1-yl)-3-{N-[4-(4-trifluoromethylphenoxy)phenyl],N-methanesulfonylamino}propionamide]: the values for the IC50 in test [4], in test [5] and in test [3] were above 10000 nM, 19.8 nM and 7.94 nM, respectively.
